{"source": "patent US8951527B2", "about": "“Radioprotectants targeting thrombospondin-1 and CD47” (The United States of America, as represented by the …, priority 2008, dated 2015)", "key": {"SCC VII": {"system": "SCC VII", "assay": "SCC VII squamous cell carcinoma tumor growth after irradiation in C3H mice", "format": "in vivo, mouse", "settings": "IP morpholino 48 hours before irradiation", "experimental": "FIG. 19. CD47 suppression enhances re-growth delay in irradiated syngeneic B16 melanoma and squamous cell carcinoma tumors but increases radioresistance of B16 cells in vitro. C57BL/6 mice were injected with 1×10^6 B16 mouse melanoma cells into their right hindlimbs. Five days later, the mice were randomized into 4 groups (12 mice in each group) where they either received injections of CD47 morpholino (10 μM) in sterile PBS, PBS, or no injection. The two groups receiving injections were then subjected to radiation (10 Gy) to the effected hindlimb 48 hours later. The other two groups served as controls and consisted of tumor alone or tumor subjected to only the morpholino. Tumors were followed post-radiation for 30 days, measuring their volume every 6 days (FIG. 19A). Results are presented as the mean±SD of 12 mice in each treatment group and are representative of 3 independent studies. […] Cell (mitochondrial) viability was measured 48 hours post radiation using the MTT assay.\nFIG. 20. […] Tumor growth was assessed as above. […]\nIn other experiments, C3H mice were injected in the right hindlimb with either 1.5×10^5 SCC VII cells, and tumors were allowed to establish for 1 week. […] The mice were observed and tumor size determined two to three times a week by the same individual until lesion size necessitated animal euthanasia."}, "C57BL/6 wild type mice": {"system": "C57BL/6 wild type mice", "assay": "Tissue apoptosis (TUNEL) in irradiated hindlimb muscle and bone marrow", "format": "in vivo, mouse", "settings": "morpholino 48 hours before 25 Gy, 24 hours post-radiation", "experimental": "FIG. 17. Therapeutic suppression of CD47 prevents radiation-induced apoptosis in muscle and bone marrow. The presence of apoptosis was detected by the TUNEL method as brown nuclear staining. Non-irradiated control hindlimbs (upper panels) and hindlimbs irradiated for a total of 25 Gy all from age and sex matched C57BL/6 wild type mice were prepared for paraffin-embedded tissue sections 24 hours post-radiation and were examined for the presence of apoptotic nuclei. Mice hindlimbs injected with the CD47 morpholino (bottom panels) 48 hours prior to radiation were also prepared in the same manner 24 hours post-radiation. Apoptosis is inferred by intranuclear staining of muscle and bone marrow cells. Images were acquired using a 20× objective.\nTissue apoptosis: The ApopTag in situ detection kit (Chemicon, Millipore, Mass.) was employed following the manufacturer's recommendations In brief, sections undergo deparaffinization, rehydration and washing, followed by treatment with 20 μg/ml of proteinase K for 15 minutes at room temperature and repeat washing. Endogenous peroxidase activity was quenched with 3% H2O2 in PBS for 5 minutes. The 3′-hydroxy DNA strand breaks were enzymatically labeled with digoxygenin nucleotide via TdT and incubated for 1 hour at 37° C., and the reaction terminated with a stop buffer. […]"}}, "note": "Entries after “also recorded” stand apart in the source; their conditions may differ."}
{"sequence": "CGTCACAGGCAGGACCCACTGCCCA (all phosphorodiamidate morpholino (PMO)) [CD47 morpholino, CD47 targeting morpholino oligonucleotide]", "values": [{"measurement": "tumor growth delay, intraperitoneal versus local administration", "setting": "SCC VII", "result": "as effective as local delivery; also recorded: equivalent delay in tumor growth"}, {"measurement": "apoptosis (TUNEL) in bone marrow", "setting": "C57BL/6 wild type mice", "result": "tissue protection extended to the bone marrow compartment"}, {"measurement": "apoptosis (TUNEL) in skeletal muscle", "setting": "C57BL/6 wild type mice", "result": "minimum cell death (apoptosis)"}]}
